Experimental data: patent US11168347B2, “Digital quantification of DNA replication and/or chromosome segregation based determination of antimicrobial susceptibility” (CALIFORNIA INSTITUTE OF TECHNOLOGY, priority 2016, dated 2021)
Converted amounts (≈) assume the structure as drawn.

System: E. coli strain isolated from a patient with a urinary tract infection
Assay: microbe, parasite or virus in culture
Details: Escherichia coli, read-out: minimum inhibitory concentration

O=C1CN(/N=C/c2ccc([N+](=O)[O-])o2)C(=O)N1 [nit, Nitrofurantoin]
MIC: 64 µg/mL (≈ 269 µM)
